Test results published in patent publication US6875451B2, “Compositions and methods for the treatment of primary and metastatic neoplastic diseases using arsenic compounds” (PolaRx Biopharmaceuticals Inc., priority 1997, dated 2005).

Legend:
Assay type in all cases: cell-based
SNB-75 = experiment: SRB growth assay, 2 days exposure, CNS cancer
Method: (§1) Arsenic trioxide (1 mg/ml, 10 mg/ampoule, manufactured by Taylor Pharmaceuticals, Decatur, Ill.) was tested at five concentrations each at 10-fold dilutions, i.e., 10^−5, 10^−6, 10^−7, 10^−8 and 10^−9 μg/ml.
(§2) The in vitro tests were performed by incubating the test cells in the presence of the indicated concentration of arsenic trioxide under standard culture conditions for a designated period of time, which is followed by a sulforhodamine B (SRB) protein assay to estimate cell viability or growth. The cell lines are organized into subpanels according to the origin of the cell lines, e.g., leukemia, breast cancer, etc. A description of the cell lines and method of testing is described in Monk et al. (1997, Anticancer Drug Des. 12:533-41) and Weinstein et al., (1997, Science 275:343-9), which are incorporated herein in their entirety.
(§3) The measurement of an effect is expressed in Percentage Growth (PG). The measured effect of the compound on a cell line is calculated according to one or the other of the following two expressions: If (Mean ODtest−Mean ODzero)≧0. then PG=100×(Mean ODtest−Mean ODzero)/(Mean ODctrl−Mean ODzero) If (Mean ODtest−Mean ODzero)<0. then PG=100×(Mean ODtest−Mean ODzero)/(Mean ODzero where: • Mean ODzero=the average of optical density measurements of SRB-derived color just before exposure of cells to the test compounds; • Mean ODtest=the average of optical density measurements of SRB-derived color after exposure of cells to the test compound for a designated period of time; and • Mean ODctrl=the average of optical density measurements of SRB-derived color after with no exposure of cells to the test compound for a designated period of time
(§4) The first two columns describe the subpanel (e.g., leukemia) and cell line (e.g., CCRF-CEM) involved. The next two columns list the Mean ODzero and Mean ODctrl; the next five columns list the Mean ODtest for each of five different concentrations. Each concentration is expressed as the log10 (molar or μg/ml). The next five columns list the calculated PGs for each concentration. The response parameters GI50, TGI and LC50 are interpolated values representing the concentrations at which the PG is +50, 0, and −50, respectively. Sometimes these response parameters cannot be obtained by interpolation. If, for instance, all of the PGs in a given row exceed +50, then none of the three parameters can be obtained by interpolation. In such a case, the value given for each response parameter is the highest concentration tested and is preceded by a “>” sign. This practice is extended similarly to the other possible situations where a response parameter cannot be obtained by interpolation.
(§5) In the first set, the cells from 56 different cancer cell lines were exposed to five concentrations of arsenic trioxide continuously for two days prior to performing the SRB assay. In the second set, the cells from 50 different cell lines (a subset of the first 56 cell lines, plus the renal cancer cell line 786-0) were exposed continuously for six days prior to the SRB assay.

SF-295 = experiment: SRB growth assay, 2 days exposure, CNS cancer
Method: as §1, §2, §3, §4, §5

SNB-19 = experiment: SRB growth assay, 2 days exposure, CNS cancer
Method: as §1, §2, §3, §4, §5

MDA-MB-231/ATCC = experiment: SRB growth assay, 2 days exposure, breast cancer
Method: as §1, §2, §3, §4, §5

MDA-N = experiment: SRB growth assay, 2 days exposure, breast cancer
Method: as §1, §2, §3, §4, §5

BT-549 = experiment: SRB growth assay, 2 days exposure, breast cancer
Method: as §1, §2, §3, §4, §5

MDA-MB-435 = experiment: SRB growth assay, 2 days exposure, breast cancer
Method: as §1, §2, §3, §4, §5

NCI/ADR-RES = experiment: SRB growth assay, 2 days exposure, breast cancer
Method: as §1, §2, §3, §4, §5

RXE 393 = experiment: SRB growth assay, 2 days exposure, renal cancer
Method: as §1, §2, §3, §4, §5

TX-10 = experiment: SRB growth assay, 2 days exposure, renal cancer
Method: as §1, §2, §3, §4, §5

CAKI-1 = experiment: SRB growth assay, 2 days exposure, renal cancer
Method: as §1, §2, §3, §4, §5

A498 = experiment: SRB growth assay, 2 days exposure, renal cancer
Method: as §1, §2, §3, §4, §5

SN12C = experiment: SRB growth assay, 2 days exposure, renal cancer
Method: as §1, §2, §3, §4, §5

UO-31 = experiment: SRB growth assay, 2 days exposure, renal cancer
Method: as §1, §2, §3, §4, §5

arsenic trioxide
TGI (SNB-75): 0.00698 ng/mL | Percent Growth (SNB-75; log10 conc −4.9): −17% | Percent Growth (SNB-75; log10 conc −5.9): 37% | Percent Growth (SNB-75; log10 conc −6.9): 115% | Percent Growth (SNB-75; log10 conc −7.9): 100% | Percent Growth (SNB-75; log10 conc −8.9): 77% | TGI (SF-295): >0.0126 ng/mL | Percent Growth (SF-295; log10 conc −4.9): 51% | Percent Growth (SF-295; log10 conc −5.9): 91% | Percent Growth (SF-295; log10 conc −6.9): 91% | Percent Growth (SF-295; log10 conc −7.9): 96% | Percent Growth (SF-295; log10 conc −8.9): 93% | TGI (SNB-19): >0.0126 ng/mL | Percent Growth (SNB-19; log10 conc −4.9): 36% | Percent Growth (SNB-19; log10 conc −5.9): 97% | Percent Growth (SNB-19; log10 conc −6.9): 98% | Percent Growth (SNB-19; log10 conc −7.9): 97% | Percent Growth (SNB-19; log10 conc −8.9): 93% | TGI (MDA-MB-231/ATCC): >0.0126 ng/mL | Percent Growth (MDA-MB-231/ATCC; log10 conc −4.9): 3% | Percent Growth (MDA-MB-231/ATCC; log10 conc −5.9): 107% | Percent Growth (MDA-MB-231/ATCC; log10 conc −6.9): 109% | Percent Growth (MDA-MB-231/ATCC; log10 conc −7.9): 102% | Percent Growth (MDA-MB-231/ATCC; log10 conc −8.9): 97% | TGI (MDA-N): >0.0126 ng/mL | Percent Growth (MDA-N; log10 conc −4.9): 3% | Percent Growth (MDA-N; log10 conc −5.9): 86% | Percent Growth (MDA-N; log10 conc −6.9): 91% | Percent Growth (MDA-N; log10 conc −7.9): 101% | Percent Growth (MDA-N; log10 conc −8.9): 102% | TGI (BT-549): >0.0126 ng/mL | Percent Growth (BT-549; log10 conc −4.9): 26% | Percent Growth (BT-549; log10 conc −5.9): 84% | Percent Growth (BT-549; log10 conc −6.9): 108% | Percent Growth (BT-549; log10 conc −7.9): 110% | Percent Growth (BT-549; log10 conc −8.9): 114% | TGI (MDA-MB-435): >0.0126 ng/mL | Percent Growth (MDA-MB-435; log10 conc −4.9): 21% | Percent Growth (MDA-MB-435; log10 conc −5.9): 94% | Percent Growth (MDA-MB-435; log10 conc −6.9): 105% | Percent Growth (MDA-MB-435; log10 conc −7.9): 93% | Percent Growth (MDA-MB-435; log10 conc −8.9): 94% | TGI (NCI/ADR-RES): >0.0126 ng/mL | Percent Growth (NCI/ADR-RES; log10 conc −4.9): 45% | Percent Growth (NCI/ADR-RES; log10 conc −5.9): 92% | Percent Growth (NCI/ADR-RES; log10 conc −6.9): 104% | Percent Growth (NCI/ADR-RES; log10 conc −7.9): 99% | Percent Growth (NCI/ADR-RES; log10 conc −8.9): 118% | TGI (RXE 393): >0.0126 ng/mL | Percent Growth (RXE 393; log10 conc −4.9): 7% | Percent Growth (RXE 393; log10 conc −5.9): 67% | Percent Growth (RXE 393; log10 conc −6.9): 109% | Percent Growth (RXE 393; log10 conc −7.9): 74% | Percent Growth (RXE 393; log10 conc −8.9): 23% | TGI (TX-10): >0.0126 ng/mL | Percent Growth (TX-10; log10 conc −4.9): 55% | Percent Growth (TX-10; log10 conc −5.9): 96% | Percent Growth (TX-10; log10 conc −6.9): 102% | Percent Growth (TX-10; log10 conc −7.9): 96% | Percent Growth (TX-10; log10 conc −8.9): 98% | TGI (CAKI-1): 0.00913 ng/mL | Percent Growth (CAKI-1; log10 conc −4.9): −13% | Percent Growth (CAKI-1; log10 conc −5.9): 78% | Percent Growth (CAKI-1; log10 conc −6.9): 128% | Percent Growth (CAKI-1; log10 conc −7.9): 103% | Percent Growth (CAKI-1; log10 conc −8.9): 120% | TGI (A498): 0.00971 ng/mL | Percent Growth (A498; log10 conc −4.9): −11% | Percent Growth (A498; log10 conc −5.9): 84% | Percent Growth (A498; log10 conc −6.9): 89% | Percent Growth (A498; log10 conc −7.9): 93% | Percent Growth (A498; log10 conc −8.9): 105% | TGI (SN12C): 0.00696 ng/mL | Percent Growth (SN12C; log10 conc −4.9): −28% | Percent Growth (SN12C; log10 conc −5.9): 81% | Percent Growth (SN12C; log10 conc −6.9): 88% | Percent Growth (SN12C; log10 conc −7.9): 96% | Percent Growth (SN12C; log10 conc −8.9): 97% | TGI (UO-31): >0.0126 ng/mL | Percent Growth (UO-31; log10 conc −4.9): 42% | Percent Growth (UO-31; log10 conc −5.9): 103% | Percent Growth (UO-31; log10 conc −6.9): 110% | Percent Growth (UO-31; log10 conc −7.9): 108% | Percent Growth (UO-31; log10 conc −8.9): 105%
